Assay results as given in ChEMBL document CHEMBL5113511, “Discovery of Small-Molecule Degraders of the CDK9-Cyclin T1 Complex for Targeting Transcriptional Addiction in Prostate Cancer” (J Med Chem, 2022).
Calls of active or inactive are those of the source. The calls are words filed in the database; no cut-off is given here.

Columns and labels:
[1] = molecular target: T1, Cyclin-dependent kinase 9 (Homo sapiens, UniProt P50750); experiment: Induction of HyT-mediated degradation of CDK9 in human 22Rv1 cells at 0.3 to 3 uM incubated for 24 hrs by immunoblot analysis; type: cell-based; conditions: dose 0.3-3 µM
T1 sequence (P50750 whole entry): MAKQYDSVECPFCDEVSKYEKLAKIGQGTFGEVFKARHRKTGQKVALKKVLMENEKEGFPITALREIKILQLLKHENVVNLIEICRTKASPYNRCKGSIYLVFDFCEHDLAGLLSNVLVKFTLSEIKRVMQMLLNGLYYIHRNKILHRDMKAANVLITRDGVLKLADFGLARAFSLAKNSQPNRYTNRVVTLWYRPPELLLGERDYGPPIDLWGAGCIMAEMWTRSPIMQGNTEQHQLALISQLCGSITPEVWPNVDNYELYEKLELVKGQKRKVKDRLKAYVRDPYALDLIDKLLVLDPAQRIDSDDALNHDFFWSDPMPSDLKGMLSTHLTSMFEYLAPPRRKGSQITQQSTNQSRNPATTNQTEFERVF

Cyclin-T1 [2] = molecular target: T2, Cyclin-T1 (Homo sapiens, UniProt O60563); experiment: Induction of HyT-mediated degradation of Cyclin T1 in human 22Rv1 cells at 0.3 to 3 uM incubated for 24 hrs by immunoblot analysis; type: cell-based; conditions: dose 0.3-3 µM
T2 sequence (O60563 whole entry): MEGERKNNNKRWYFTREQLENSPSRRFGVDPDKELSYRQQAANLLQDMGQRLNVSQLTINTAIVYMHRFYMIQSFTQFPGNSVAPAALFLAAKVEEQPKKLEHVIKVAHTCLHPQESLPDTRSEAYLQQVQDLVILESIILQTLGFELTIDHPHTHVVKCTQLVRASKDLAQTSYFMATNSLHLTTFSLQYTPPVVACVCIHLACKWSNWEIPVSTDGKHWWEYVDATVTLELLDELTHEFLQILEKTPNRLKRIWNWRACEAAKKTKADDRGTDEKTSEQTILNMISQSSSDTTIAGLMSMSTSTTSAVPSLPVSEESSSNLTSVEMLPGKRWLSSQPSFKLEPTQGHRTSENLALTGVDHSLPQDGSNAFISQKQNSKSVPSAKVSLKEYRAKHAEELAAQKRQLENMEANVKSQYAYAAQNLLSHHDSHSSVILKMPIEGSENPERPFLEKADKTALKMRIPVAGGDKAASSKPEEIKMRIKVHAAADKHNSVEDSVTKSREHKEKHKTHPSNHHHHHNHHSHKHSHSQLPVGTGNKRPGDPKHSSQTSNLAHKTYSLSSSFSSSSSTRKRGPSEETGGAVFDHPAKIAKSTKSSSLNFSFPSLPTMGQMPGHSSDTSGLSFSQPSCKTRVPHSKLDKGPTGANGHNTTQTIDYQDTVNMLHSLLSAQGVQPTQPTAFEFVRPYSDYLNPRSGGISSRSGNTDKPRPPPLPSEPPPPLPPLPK

CWR22R [3] = experiment: Downregulation of cyclin D1 protein expression in human 22Rv1 cells at 2 uM incubated for 24 hrs by DIA-based proteomics analysis; type: functional, cell-based
CWR22R [4] = experiment: Upregulation of […] protein expression in human 22Rv1 cells at 2 uM incubated for 24 hrs by DIA-based proteomics analysis; type: functional, cell-based
CWR22R [5] = experiment: Antiproliferative activity against human 22Rv1 cells assessed as reduction in cell viability measured after 5 days by CellTiter-Glo assay; type: functional, cell-based; conditions: 22Rv1, 120 h
CWR22R [6] = experiment: Induction of cell cycle arrest in human 22Rv1 cells assessed as accumulation of cells at G1 phase at 0.3 to 1 uM incubated for 24 hrs by propidium iodide staining based flow cytometry; type: functional; conditions: dose 0.3-1 µM
CWR22R [7] = experiment: Induction of cell cycle arrest in human 22Rv1 cells assessed as accumulation of cells at sub-G1 phase at 0.3 to 1 uM incubated for 24 hrs by propidium iodide staining based flow cytometry; type: functional; conditions: dose 0.3-1 µM
CWR22R [8] = experiment: Induction of apoptosis in human 22Rv1 cells at 0.3 to 1 uM incubated for 24 hrs by AnnexinV-FITC/PI staining based flow cytometry; type: functional, cell-based; conditions: dose 0.3-1 µM
Cyclin-T1 [9] = molecular target: T2, Cyclin-T1; experiment: Induction of HyT-mediated degradation of Cyclin T1 in human 22Rv1 cells assessed as reduction in Cyclin T1 level at 3 uM incubated for 24 hrs by immunoblot analysis; type: cell-based
Cyclin-T1 [10] = molecular target: T2, Cyclin-T1; experiment: Induction of HyT-mediated degradation of Cyclin T1 in human 22Rv1 cells at 3 uM incubated for 24 hrs by immunoblot analysis relative to control; type: cell-based
[11] = molecular target: T1, Cyclin-dependent kinase 9; experiment: Induction of HyT-mediated degradation of CDK9 in human 22Rv1 cells at 3 uM incubated for 24 hrs by immunoblot analysis relative to control; type: cell-based
[12] = molecular target: T1, Cyclin-dependent kinase 9; experiment: Induction of CDK9 degradation in human 22Rv1 cells at 3 uM incubated for 24 hrs by DIA-based proteomics analysis; type: cell-based
Cyclin-T1 [13] = molecular target: T2, Cyclin-T1; experiment: Induction of Cyclin T1 degradation in human 22Rv1 cells assessed as cyclin T1 level at 3 uM incubated for 24 hrs by DIA-based proteomics analysis; type: cell-based
CWR22R [14] = experiment: Downregulation of CCNT1 mRNA expression in human 22Rv1 cells at 2 uM incubated for 24 hrs by transcriptome RNA-seq analysis; type: functional, cell-based
[15] = molecular target: T1, Cyclin-dependent kinase 9; experiment: Induction of degradation of CDK9 in human 22Rv1 cells at 3 uM measured for 36 hrs by DIA-based proteomics analysis; type: cell-based
[16] = molecular target: T1, Cyclin-dependent kinase 9; experiment: Induction of degradation of CDK9 in human 22Rv1 cells at 2 uM measured after 0 to 7 hrs by immunoblot analysis; type: cell-based; conditions: time 0-7 hrs
[17] = molecular target: T1, Cyclin-dependent kinase 9; experiment: Induction of degradation of CDK9 in human 22Rv1 cells assessed as reduction in CDK9 level at 2 uM measured after 9 hrs by immunoblot analysis; type: cell-based
[18] = molecular target: Cyclin-dependent kinase 1 (Homo sapiens) (UniProt P06493); experiment: Induction of CDK1 degradation in human 22Rv1 cells assessed as downregulation of CDK1 level at 3 uM measured after 12 hrs by DIA-based proteomics analysis; type: cell-based
Cyclin-dependent kinase 1 (Homo sapiens), sequence (P06493 whole entry, looked up): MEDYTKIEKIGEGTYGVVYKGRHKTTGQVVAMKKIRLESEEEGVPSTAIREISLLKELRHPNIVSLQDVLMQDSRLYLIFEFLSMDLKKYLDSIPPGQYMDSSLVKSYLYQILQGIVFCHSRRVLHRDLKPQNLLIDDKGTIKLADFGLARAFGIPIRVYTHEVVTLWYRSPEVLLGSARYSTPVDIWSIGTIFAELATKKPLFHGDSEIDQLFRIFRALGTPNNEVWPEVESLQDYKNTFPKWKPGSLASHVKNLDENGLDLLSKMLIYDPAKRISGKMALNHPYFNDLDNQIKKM

[19] = molecular target: Cyclin-dependent kinase 4 (Homo sapiens) (UniProt P11802); experiment: Induction of CDK4 degradation in human 22Rv1 cells assessed as downregulation of CDK4 level at 3 uM measured after 12 hrs by DIA-based proteomics analysis; type: cell-based
Cyclin-dependent kinase 4 (Homo sapiens), sequence (P11802 whole entry): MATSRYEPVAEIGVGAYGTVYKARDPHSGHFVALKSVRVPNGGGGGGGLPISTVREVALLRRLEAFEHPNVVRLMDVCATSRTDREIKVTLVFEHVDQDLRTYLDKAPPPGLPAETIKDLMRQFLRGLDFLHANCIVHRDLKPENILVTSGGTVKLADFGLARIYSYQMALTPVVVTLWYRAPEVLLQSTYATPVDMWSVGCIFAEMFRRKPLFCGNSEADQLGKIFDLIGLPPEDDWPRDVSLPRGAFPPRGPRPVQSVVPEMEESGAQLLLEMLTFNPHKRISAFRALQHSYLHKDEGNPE

[20] = molecular target: Cyclin-dependent kinase 6 (Homo sapiens) (UniProt Q00534); experiment: Induction of CDK6 degradation in human 22Rv1 cells assessed as downregulation of CDK6 level at 3 uM measured after 12 hrs by DIA-based proteomics analysis; type: cell-based
Cyclin-dependent kinase 6 (Homo sapiens), sequence (Q00534 whole entry): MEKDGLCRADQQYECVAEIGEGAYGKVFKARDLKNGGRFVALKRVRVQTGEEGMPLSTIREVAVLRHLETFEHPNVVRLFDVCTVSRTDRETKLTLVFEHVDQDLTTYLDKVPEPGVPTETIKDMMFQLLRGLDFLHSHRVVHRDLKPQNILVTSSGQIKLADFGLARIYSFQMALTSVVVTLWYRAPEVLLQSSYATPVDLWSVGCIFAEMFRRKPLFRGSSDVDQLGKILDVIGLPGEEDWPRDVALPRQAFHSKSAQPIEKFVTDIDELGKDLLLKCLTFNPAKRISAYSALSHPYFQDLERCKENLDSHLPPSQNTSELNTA

[21] = molecular target: Cyclin-dependent kinase 7 (Homo sapiens) (UniProt P50613); experiment: Induction of CDK7 degradation in human 22Rv1 cells assessed as downregulation of CDK7 level at 3 uM measured after 12 hrs by DIA-based proteomics analysis; type: cell-based
Cyclin-dependent kinase 7 (Homo sapiens), sequence (P50613 whole entry): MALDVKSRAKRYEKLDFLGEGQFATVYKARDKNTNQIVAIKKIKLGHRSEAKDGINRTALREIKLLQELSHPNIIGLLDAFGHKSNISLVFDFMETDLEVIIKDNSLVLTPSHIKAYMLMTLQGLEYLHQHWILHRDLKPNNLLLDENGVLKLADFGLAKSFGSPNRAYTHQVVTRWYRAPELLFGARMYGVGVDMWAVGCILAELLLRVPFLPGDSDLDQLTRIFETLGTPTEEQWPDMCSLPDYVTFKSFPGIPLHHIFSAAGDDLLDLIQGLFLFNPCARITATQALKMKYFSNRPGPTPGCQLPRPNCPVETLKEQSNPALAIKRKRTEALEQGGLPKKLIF

[22] = molecular target: Cyclin-dependent kinase 11B (Homo sapiens) (UniProt P21127); experiment: Induction of CDK11B degradation in human 22Rv1 cells at 3 uM measured after 36 hrs by DIA-based proteomics analysis; type: cell-based
Cyclin-dependent kinase 11B (Homo sapiens), sequence (P21127 whole entry): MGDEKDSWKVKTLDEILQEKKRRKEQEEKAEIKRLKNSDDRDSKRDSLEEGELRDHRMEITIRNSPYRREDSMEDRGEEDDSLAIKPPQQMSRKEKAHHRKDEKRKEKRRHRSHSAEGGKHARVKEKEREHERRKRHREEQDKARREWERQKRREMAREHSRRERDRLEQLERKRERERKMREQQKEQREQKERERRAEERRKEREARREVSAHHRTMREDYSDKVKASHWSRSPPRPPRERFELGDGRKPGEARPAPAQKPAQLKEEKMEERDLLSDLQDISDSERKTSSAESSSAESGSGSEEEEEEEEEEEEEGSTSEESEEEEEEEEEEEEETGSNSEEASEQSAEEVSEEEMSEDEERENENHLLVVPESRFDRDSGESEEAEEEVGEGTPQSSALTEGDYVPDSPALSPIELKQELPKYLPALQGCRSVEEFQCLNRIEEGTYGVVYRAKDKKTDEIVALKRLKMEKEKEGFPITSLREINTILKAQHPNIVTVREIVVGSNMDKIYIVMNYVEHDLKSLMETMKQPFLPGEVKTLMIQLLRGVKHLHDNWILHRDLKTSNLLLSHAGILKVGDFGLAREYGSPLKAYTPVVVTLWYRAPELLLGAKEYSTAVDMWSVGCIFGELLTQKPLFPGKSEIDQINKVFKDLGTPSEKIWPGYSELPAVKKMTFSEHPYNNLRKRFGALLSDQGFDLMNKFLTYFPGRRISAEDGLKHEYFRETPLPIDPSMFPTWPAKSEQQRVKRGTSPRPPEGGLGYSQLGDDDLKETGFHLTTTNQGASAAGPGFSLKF

Cyclin-T1 [23] = molecular target: T2, Cyclin-T1; experiment: Induction of degradation of Cyclin T1 in human 22Rv1 cells at 3 uM measured for 36 hrs by DIA-based proteomics analysis; type: cell-based
CWR22R [24] = experiment: Inhibition of colony formation in human 22Rv1 cells at 100 to 200 nM treated for 14 days with replacement with fresh medium containing compound for every 48 hrs by crystal violet staining based analysis; type: functional, cell-based; conditions: dose 100-200 nM, time 14.0 day
[25] = molecular target: T1, Cyclin-dependent kinase 9; experiment: Induction of CDK9 degradation in human 22Rv1 cells assessed as decrease in cyclin A2 protein expression at 3 uM measured for 36 hrs by DIA-based proteomics analysis; type: cell-based
[26] = molecular target: T1, Cyclin-dependent kinase 9; experiment: Induction of CDK9 degradation in human 22Rv1 cells assessed as decrease in cyclin B1 protein expression at 3 uM measured for 36 hrs by DIA-based proteomics analysis; type: cell-based
[27] = molecular target: T1, Cyclin-dependent kinase 9; experiment: Induction of CDK9 degradation in human 22Rv1 cells assessed as decrease in cyclin D1 protein expression at 3 uM measured for 36 hrs by DIA-based proteomics analysis; type: cell-based
[28] = molecular target: T1, Cyclin-dependent kinase 9; experiment: Induction of CDK9 degradation in human 22Rv1 cells assessed as decrease in cyclin C protein expression at 3 uM measured for 36 hrs by DIA-based proteomics analysis; type: cell-based
[29] = molecular target: T1, Cyclin-dependent kinase 9; experiment: Induction of CDK9 degradation in human 22Rv1 cells assessed as downregulation of AR protein expression at 3 uM measured for 36 hrs by DIA-based proteomics analysis; type: cell-based
[30] = molecular target: T1, Cyclin-dependent kinase 9; experiment: Induction of CDK9 degradation in human 22Rv1 cells assessed as inhibition of Ser2 phosphorylation of RNA Pol II CTD at 0.3 to 3 uM incubated for 24 hrs by immunoblot analysis; type: cell-based; conditions: dose 0.3-3 µM
[31] = molecular target: T1, Cyclin-dependent kinase 9; experiment: Induction of CDK9 degradation in human 22Rv1 cells assessed as downregulation of MCL1 protein expression at 0.3 to 3 uM incubated for 24 hrs by immunoblot analysis; type: cell-based; conditions: dose 0.3-3 µM
[32] = molecular target: T1, Cyclin-dependent kinase 9; experiment: Induction of HyT-mediated degradation of CDK9 in human 22Rv1 cells assessed as reduction in CDK9 protein level at 3 uM incubated for 24 hrs by immunoblot analysis relative to control; type: cell-based; design: scale not given: the % may be the effect or the level left

Question: Which Activity [1] does the source give for `CC(C)[C@@H]1CC[C@@H](C)C[C@H]1OCC(=O)NCCN1CCC(C(=O)Nc2ncc(SCc3ncc(C(C)(C)C)o3)s2)CC1` here?
Answer: Active

Question: And the Activity (Cyclin-T1 [2])?
Answer: Active

Question: What does the source list for `CC(C)(C)c1cnc(CSc2cnc(NC(=O)C3CCNCC3)s2)o1` [BMS-387032]?
Answer: inhibition (CWR22R [3]): Active; Activity (CWR22R [4]): Active; IC50 (CWR22R [5]): 384 nM; Activity (CWR22R [6]): Active; Activity (CWR22R [7]): Active; Activity (CWR22R [8]): Active

Question: For `CC(C)[C@@H]1CC[C@@H](C)C[C@H]1OCC(=O)NCCOCCS(=O)(=O)N1CCC(C(=O)Nc2ncc(SCc3ncc(C(C)(C)C)o3)s2)CC1`, which Activity [1] is on record?
Answer: Active

Question: And the Activity (Cyclin-T1 [9])?
Answer: Active

Question: What does the source list for `CC(C)(C)OC(=O)NC(=NCCC[C@@H](NC(=O)OC(C)(C)C)C(=O)NCCS(=O)(=O)N1CCC(C(=O)Nc2ncc(SCc3ncc(C(C)(C)C)o3)s2)CC1)NC(=O)OC(C)(C)C`?
Answer: Activity [1]: Active; Activity (Cyclin-T1 [2]): Active

Question: Which results are given for `CC(C)[C@@H]1CC[C@@H](C)C[C@H]1OCC(=O)NCCCCN1CCC(C(=O)Nc2ncc(SCc3ncc(C(C)(C)C)o3)s2)CC1`?
Answer: Activity [1]: Active; Activity (Cyclin-T1 [2]): Active

Question: `CC(C)(C)c1cnc(CSc2cnc(NC(=O)C3CCN(S(=O)(=O)CCNC(=O)CC45CC6CC(CC(C6)C4)C5)CC3)s2)o1` was tested. Which Activity [1] did it give?
Answer: Active

Question: And the Activity (Cyclin-T1 [2])?
Answer: Active

Question: Which results are given for `CC(C)(C)c1cnc(CSc2cnc(NC(=O)C3CCN(S(=O)(=O)CCNC(=O)NC45CC6CC(CC(C6)C4)C5)CC3)s2)o1`?
Answer: Activity [1]: Active; Activity (Cyclin-T1 [2]): Active

Question: Which results are given for `CC(C)[C@@H]1CC[C@@H](C)C[C@H]1OCC(=O)NCCCOCCS(=O)(=O)N1CCC(C(=O)Nc2ncc(SCc3ncc(C(C)(C)C)o3)s2)CC1`?
Answer: Activity (Cyclin-T1 [10]): < 40%; Activity [11]: < 40%

Question: How did the Activity [12] turn out when `CC(C)(C)c1cnc(CSc2cnc(NC(=O)C3CCN(CC(=O)NCCOCCOCCOCCNc4cccc5c4C(=O)N(C4CCC(=O)NC4=O)C5=O)CC3)s2)o1` (stereo not given) was run?
Answer: Active

Question: What about the Activity (Cyclin-T1 [13]) of the same molecule?
Answer: 40.2%

Question: And the inhibition (CWR22R [14])?
Answer: Active

Question: And the Activity [15]?
Answer: Active

Question: And the Activity [16]?
Answer: Active

Question: And the Activity [17]?
Answer: Active

Question: What about the Activity [18] of the same molecule?
Answer: Active

Question: And the Activity [19]?
Answer: Active

Question: What about the Activity [20] of the same molecule?
Answer: Active

Question: What about the Activity [21] of the same molecule?
Answer: Active

Question: What about the Activity [22] of the same molecule?
Answer: Active

Question: What about the Activity (Cyclin-T1 [23]) of the same molecule?
Answer: Active

Question: What about the IC50 (CWR22R [5]) of the same molecule?
Answer: 49 nM

Question: And the inhibition (CWR22R [24])?
Answer: Active

Question: What about the Activity (CWR22R [6]) of the same molecule?
Answer: Active

Question: What about the Activity (CWR22R [7]) of the same molecule?
Answer: Active

Question: And the Activity (CWR22R [8])?
Answer: Active

Question: And the Activity [25]?
Answer: Active

Question: What about the Activity [26] of the same molecule?
Answer: Active

Question: What about the Activity [27] of the same molecule?
Answer: Active

Question: And the Activity [28]?
Answer: Active

Question: What about the Activity [29] of the same molecule?
Answer: Active

Question: And the Activity [30]?
Answer: Active

Question: What about the Activity [31] of the same molecule?
Answer: Active

Question: With `CC(C)[C@@H]1CC[C@@H](C)C[C@H]1OCC(=O)N1CCN(CCS(=O)(=O)N2CCC(C(=O)Nc3ncc(SCc4ncc(C(C)(C)C)o4)s3)CC2)CC1` as the molecule, how does the Activity [32] read?
Answer: > 50%
